Results: patent US11371097B2, “Articles for diagnosis of liver fibrosis” (THE GOVERNMENT OF THE UNITED STATES, as represented by THE …, priority 2015, dated 2022)
Values joined by “and” are separate entries in the source; they are usually repeats but may differ in a detail not shown here. Equal entries are not always repeated.

Test system: 67 genes on the fibrosis gene panel
Assay: Multiplexed fibrosis gene panel (QuantiGene 2.0 Plex / Bioplex) on liver RNA
[1] = Carbon Tetrachloride 200 mg/kg, animal 54
[2] = liver RNA, individual animals, Carbon Tetrachloride 200, Bromobenzene 785, Dexamethasone 1 mg/kg

ClC(Cl)(Cl)Cl [carbon tetrachloride]
A2m differential expression [1]: −3.423
Arf6 differential expression [1]: 0.270
Cxcl1 differential expression [1]: 0.190
RT1-DMa differential expression [1]: 0.225
Differential Expression of A2m [2]: −2.891 and −2.439 and −5.167
Differential Expression of Angptl3 [2]: −0.612 and −1.071 and −0.753 and −0.775
Differential Expression of Anxa2 [2]: 0.553 and 0.586 and 0.834 and 0.587
Differential Expression of Apoc [2]: −0.311 and −0.356 and −0.337 and −0.414
Differential Expression of Arf6 [2]: 0.172 and 0.167 and 0.214
Differential Expression of Arpc1b [2]: 1.102 and 1.145 and 1.554 and 1.382
Differential Expression of Arrb1 [2]: 1.846 and 2.288 and 2.226 and 1.692
Differential Expression of C1qb [2]: 0.268 and 0.290 and 0.085 and 0.332
Differential Expression of CD9 [2]: −0.279 and −0.103 and 0.754 and −0.347
Differential Expression of CD53 [2]: 0.486 and 1.094 and 1.315 and 1.262
Differential Expression of CP [2]: −0.227 and −0.328 and −0.317 and −0.414
Differential Expression of Capg [2]: 0.433 and 0.855 and 0.909 and 0.968
Differential Expression of Ccl2 [2]: 1.671 and 1.662 and 2.378 and 1.370
Differential Expression of Col1a1 [2]: 1.336 and 1.411 and 1.309 and 1.774
Differential Expression of Col1a2 [2]: 0.249 and 0.458 and 0.329 and 0.672
Differential Expression of Col4a1 [2]: −0.521 and −0.024 and −0.441 and 0.104
Differential Expression of Col5a2 [2]: 1.411 and 2.330 and 2.442 and 2.138
Differential Expression of Ctgf [2]: 2.135 and 2.232 and 2.664 and 1.663
Differential Expression of Cxcl1 [2]: −0.500 and −0.165 and −0.462
Differential Expression of Cxcl12 [2]: 0.040 and 0.320 and 0.041 and 0.403
Differential Expression of Cxcl16 [2]: 1.440 and 1.782 and 1.992 and 1.656
Differential Expression of Cyba [2]: 0.522 and 0.799 and 0.888 and 0.887
Differential Expression of Cyp2c11 [2]: −1.357 and −3.301 and −0.339 and −0.904
Differential Expression of Dsc2 [2]: 0.091 and −0.280 and −0.204 and −0.265
Differential Expression of Fam102b [2]: −0.378 and −0.140 and −0.011 and −0.240
Differential Expression of Fam105a [2]: 0.309 and 0.576 and 0.985 and 0.758
Differential Expression of Fbn1 [2]: −0.149 and 0.230 and −0.294 and 0.107
Differential Expression of Fn1 [2]: −0.120 and −0.152 and −0.364 and −0.262
Differential Expression of Fstl1 [2]: −0.259 and 0.017 and −0.180 and 0.025
Differential Expression of Fxyd5 [2]: 0.160 and 0.404 and 0.507 and 0.213
Differential Expression of Gpnmb [2]: 1.494 and 2.232 and 3.101 and 2.714
Differential Expression of Igfals [2]: −0.528 and −0.092 and −0.771 and −0.189
Differential Expression of Igfbp1 [2]: 0.019 and 0.070 and 0.480 and −0.925
Differential Expression of Igfbp2 [2]: −0.542 and 1.416 and 0.505 and −1.839
Differential Expression of Igfbp3 [2]: −0.324 and 0.063 and −0.304 and −0.113
Differential Expression of Itga1 [2]: 0.220 and 0.585 and 0.503 and 0.756
Differential Expression of Itgb2 [2]: −0.115 and 0.502 and 0.455 and 0.302
Differential Expression of Lame2 [2]: 2.323 and 2.130 and 2.338 and 1.341
Differential Expression of Lbp [2]: 0.594 and 0.379 and 0.665 and 0.050
Differential Expression of Len2 [2]: −1.654 and 0.356 and 1.528 and 2.126
Differential Expression of Lgals1 [2]: 0.936 and 0.978 and 1.986 and 1.602
Differential Expression of Lgals3 [2]: 0.994 and 1.444 and 2.024 and 1.736
Differential Expression of Lgals3bp [2]: 0.391 and 0.486 and 0.360 and 0.302
Differential Expression of Lox [2]: −0.215 and −0.493 and 0.022 and 0.077
Differential Expression of Lrp1 [2]: −0.329 and −0.337 and −0.524 and −0.671
Differential Expression of Lum [2]: 0.298 and −0.201 and 0.404 and 0.442
Differential Expression of Mmp2 [2]: −0.062 and 0.311 and 0.610 and −0.241
Differential Expression of Nid1 [2]: −0.021 and 0.232 and 0.186 and 0.154
Differential Expression of Pcolce [2]: 0.002 and 0.354 and 0.651 and −0.401
Differential Expression of Pkm2 [2]: 0.077 and 0.586 and 0.642 and 0.663
Differential Expression of Plat [2]: −0.025 and −0.411 and −0.289 and −0.385
Differential Expression of Plau [2]: 0.039 and 0.765 and 0.947 and 0.720
Differential Expression of Plod2 [2]: −0.129 and −0.357 and −0.045 and −0.258
Differential Expression of RT1-DMa [2]: 0.711 and 0.673 and 1.089
Differential Expression of RT1-Da [2]: 0.559 and 0.918 and 1.213 and 1.280
Differential Expression of S100A6 [2]: −0.079 and −0.686 and 0.408 and −0.019
Differential Expression of S100A11 [2]: 0.119 and 0.421 and 0.731 and 0.599
Differential Expression of Serpine1 [2]: 0.309 and −0.345 and 0.467 and −0.524
Differential Expression of Serping1 [2]: −0.712 and −0.714 and −0.546 and −0.514
Differential Expression of Slc25a24 [2]: −0.245 and −0.511 and −0.262 and −0.615
Differential Expression of Sod2 [2]: 0.022 and 0.009 and −0.014 and −0.116
Differential Expression of TagIn2 [2]: 0.218 and 0.282 and 0.110 and 0.153
Differential Expression of Tgfb1 [2]: −0.322 and 0.107 and −0.102 and −0.395
Differential Expression of Timp1 [2]: 0.939 and 1.200 and 1.645 and 1.241
Differential Expression of Vhl [2]: 2.369 and 2.626 and 2.628 and 2.130
Differential Expression of Vim [2]: 0.044 and 0.004 and 0.348 and 0.360
Differential Expression of Vtn [2]: −0.291 and −0.381 and −0.494 and −0.473
Panel gene expression relative to other chemical-dose groups (liver, 67-gene panel): mid-way between fibrosis-positive chemical-dose groups and non-fibrogenic chemical-dose groups
Hierarchical biclustering of log2 fold-changes in panel gene expression (liver, 67 genes): clustered mid-way between non-fibrogenic and fibrogenic doses of the other fibrogenic chemicals
